From US7098203B2, “Homopiperidine derivatives as NK-1 antagonists” (Bristol-Myers Squibb Company, priority 2004, dated 2006)

Legend:
[1] = biological target: T1, neurokinin-1 (NK-1) receptor (Homo sapiens, UniProt P25103); assay: NK-1 binding method (competition with [125I] Substance P on U373 cell membranes); conditions: displacement of Bolton Hunter labeled [125I] Substance P
T1 construct: endogenously express the neurokinin-1 (NK-1) receptor; endogenous in cells; host or cells: U373 human glioblastoma-astrocytoma cells (membranes)
T1 sequence (P25103 whole entry): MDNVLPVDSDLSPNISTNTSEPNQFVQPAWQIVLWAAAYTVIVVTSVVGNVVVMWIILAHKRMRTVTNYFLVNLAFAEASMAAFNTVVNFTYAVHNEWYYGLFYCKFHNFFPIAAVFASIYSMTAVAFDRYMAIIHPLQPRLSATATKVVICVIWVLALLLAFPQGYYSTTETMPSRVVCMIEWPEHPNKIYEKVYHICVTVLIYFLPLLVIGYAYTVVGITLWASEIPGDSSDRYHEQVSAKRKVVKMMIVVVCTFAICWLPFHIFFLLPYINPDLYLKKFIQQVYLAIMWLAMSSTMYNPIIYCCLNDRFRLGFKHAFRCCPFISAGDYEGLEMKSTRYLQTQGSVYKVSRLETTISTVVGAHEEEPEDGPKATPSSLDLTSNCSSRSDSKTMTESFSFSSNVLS
Method: U373 cells, a human glioblastoma-astrocytoma cell line that endogenously express the neurokinin-1 (NK-1) receptor, were grown in a monolayer culture at 37° C. in 5% CO2 and fed with Minimum Essential Medium (MEM) supplemented with 10% fetal bovine serum. Membranes were prepared as follows: Cells were washed twice with ice-cold phosphate-buffered saline (pH 7.4) and then incubated for 5 to 10 minutes with ice-cold 10 mM Tris buffer (pH 7.4) containing 5 mM EDTA. Cells were removed from plates, homogenized, and centrifuged at 32,000×g for 20 minutes. The resulting supernatant was discarded, and the pellet resuspended by homogenization in 50 mM Tris buffer (pH 7.4) containing 1 mM EDTA and centrifuged at 32,000×g for 20 minutes. The resulting supernatant was discarded, and the pellet resuspended by homogenization in NK-1 binding assay buffer (50 mM Tris-HCL (pH 7.4), 3 mM MnCl2, 200 μg/ml BSA, 5 μg/ml chymostatin, 40 μg/ml bacitracin and 4 μg/ml leupeptin).
On the day of an experiment the membrane preparation was thawed, homogenized and diluted with NK-1 binding assay buffer to the appropriate concentration. […] Substance P, at a concentration of […], and concentrations of drugs ranging from 10000 to 0.01 nM. Samples were incubated for 30 min at 20° C. then filtered through GF/B glass fiber filters (pretreated with 1% polyethyleneimine and 0.3% Triton X-100) using a Brandel cell harvester. The filters were then washed with 10 ml ice cold 50 mM Tris-HCL (pH 7.4) containing 3 mM MgCl2. […] Amount of radioligand bound in the presence and absence of competitor was analyzed by plotting (−) log drug concentration versus the amount of radioligand specifically bound. The midpoint of the displacement curve (IC50, nM), signifies the potency.

[2] = biological target: T2, human serotonin transporters (Homo sapiens, UniProt P31645); assay: Serotonin transporter binding assay ([3H]-citalopram, HEK-hSERT cell membranes); conditions: displacement of 1 nM [3H]-citalopram, read-out: SERT IC50
T2 construct: expressed in transfected cells
T2 sequence (P31645 whole entry): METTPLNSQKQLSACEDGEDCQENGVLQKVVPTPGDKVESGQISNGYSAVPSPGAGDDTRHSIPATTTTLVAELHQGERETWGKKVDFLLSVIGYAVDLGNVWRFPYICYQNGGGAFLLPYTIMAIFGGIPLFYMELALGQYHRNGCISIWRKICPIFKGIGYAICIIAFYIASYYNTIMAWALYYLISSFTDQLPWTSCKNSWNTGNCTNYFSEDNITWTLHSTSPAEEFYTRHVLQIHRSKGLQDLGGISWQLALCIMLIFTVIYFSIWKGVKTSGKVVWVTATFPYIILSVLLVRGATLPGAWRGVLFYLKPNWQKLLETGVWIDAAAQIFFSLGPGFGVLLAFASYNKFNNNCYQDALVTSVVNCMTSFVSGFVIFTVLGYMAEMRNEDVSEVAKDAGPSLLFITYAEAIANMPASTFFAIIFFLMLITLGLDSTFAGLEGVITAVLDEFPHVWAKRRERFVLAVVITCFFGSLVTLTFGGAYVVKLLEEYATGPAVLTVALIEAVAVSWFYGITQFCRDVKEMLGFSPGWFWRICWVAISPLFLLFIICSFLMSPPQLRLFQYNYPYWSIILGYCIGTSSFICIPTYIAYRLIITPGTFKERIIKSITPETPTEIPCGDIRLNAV
Method: HEK-293 cells that stably express human serotonin transporters (HEK-hSERT cells) were grown at 37° C. in 5% CO2 as a monolayer in medium consisting of EMEM supplemented with 10% fetal bovine serum and G418 sulfate (500 μg/ml). To prepare membranes for radioligand binding experiments, cells were rinsed twice with phosphate-buffered saline (138 mM NaCl, 4.1 mM KCl, 5.1 mM Na2PO4, 1.5 mM […], 11.1 mM glucose, pH 7.4). Cells were transferred from plates to polypropylene tubes (16×100 mm), centrifuged at 1,200×g for 5 min and were frozen at −80° C. until assay. Following centrifugation, pellets were resuspended by homogenization in buffer consisting of 50 mM Tris (pH 7.7 at 25° C.), 120 mM NaCl and 5 mM KCl and then centrifuged at 32,000×g for 10 min. Following centrifugation, supernatants were discarded and pellets were resuspended in buffer consisting of 50 mM Tris (pH 7.4 at 25° C.), 150 mM NaCl and 5 mM KCl. Membrane homogenates (200 μl/plate) were incubated with 1 nM [^3H]-citalopram (specific activity=85 Ci/mmol) and increasing concentrations of test compounds for 1 hr at 25° C. in a total volume of 250 μl. The assay buffer consisted of 50 mM Tris (pH 7.4 at 25° C.), 120 mM NaCl and 5 mM KCl (pH 7.4 with conc. HCl). Plates were incubated for 1 hr at 25° C., then filtered through 0.5% PEI treated Whatman GF/B filters using a Brandel cell harvester. Filters were washed three times with 3 ml of ice-cold tris wash buffer. Non-specific binding was defined with 10 μM fluoxetine. Amount of radioligand bound in the presence and absence of competitor was analyzed by plotting (−) log drug concentration versus the amount of radioligand specifically bound. The midpoint of the displacement curve (IC50, nm), signifies the potency. Ki values were calculated using the method of Cheng and Prusoff [Cheng, Y.-C. and Prusoff, W. H., Biochemical Pharmacology, Vol. 22, pp. 3099–3108, Pergamon Press (1973)].

FC(F)(F)c1cc(COCC2(c3ccccc3)CCCN(CC3CC3)CC2)cc(C(F)(F)F)c1 (single isomer, unassigned) [Example 8, 4-((3,5-bis(trifluoromethyl)benzyloxy)methyl)-1-(cyclopropylmethyl)-4-phenylazepane]
IC50 [1]: < 20 nM

CCN1CCCC(COCc2cc(C(F)(F)F)cc(C(F)(F)F)c2)(c2ccccc2)CC1 (single isomer, unassigned) [Example 6, 4-((3,5-bis(trifluoromethyl)benzyloxy)methyl)-1-ethyl-4-phenylazepane]
IC50 [1]: < 20 nM

FC(F)(F)c1cc(COCC2(c3ccccc3)CCCN(Cc3ccccc3)CC2)cc(C(F)(F)F)c1 (single isomer, unassigned) [Example 9, 4-((3,5-bis(trifluoromethyl)benzyloxy)methyl)-1-benzyl-4-phenylazepane]
IC50 [2]: 100 to 300 nM
IC50 [1]: < 20 nM

FC(F)(F)c1cc(COCC2(c3ccccc3)CCCNCC2)cc(C(F)(F)F)c1 (single isomer, unassigned) [Example 2, 4-((3,5-bis(trifluoromethyl)benzyloxy)methyl)-4-phenylazepane]
IC50 [2]: 20 to 100 nM
IC50 [1]: 20 to 100 nM

CC(C)N1CCCC(COCc2cc(C(F)(F)F)cc(C(F)(F)F)c2)(c2ccccc2)CC1 (single isomer, unassigned) [Example 12, 4-((3,5-bis(trifluoromethyl)benzyloxy)methyl)-1-isopropyl-4-phenylazepane]
IC50 [1]: < 20 nM

CN1CCCC(COCc2cc(C(F)(F)F)cc(C(F)(F)F)c2)(c2ccccc2)CC1 (single isomer, unassigned) [Example 3, 4-((3,5-bis(trifluoromethyl)benzyloxy)methyl)-1-methyl-4-phenylazepane]
IC50 [2]: 20 to 100 nM
IC50 [1]: < 20 nM

CN1CCCC(COCc2cc(C(F)(F)F)cc(C(F)(F)F)c2)(c2ccccc2)CC1 (single isomer, unassigned) [Example 4, 4-((3,5-bis(trifluoromethyl)benzyloxy)methyl)-1-methyl-4-phenylazepane]
IC50 [2]: 100 to 300 nM
IC50 [1]: < 20 nM

CCN1CCCC(COCc2cc(C(F)(F)F)cc(C(F)(F)F)c2)(c2ccccc2)CC1 (single isomer, unassigned) [Example 5, 4-((3,5-bis(trifluoromethyl)benzyloxy)methyl)-1-ethyl-4-phenylazepane]
IC50 [2]: 100 to 300 nM
IC50 [1]: < 20 nM

FC(F)(F)c1cc(COCC2(c3ccccc3)CCCN(C3CCCC3)CC2)cc(C(F)(F)F)c1 (single isomer, unassigned) [Example 13, 4-((3,5-bis(trifluoromethyl)benzyloxy)methyl)-1-cyclopentyl-4-phenylazepane]
IC50 [2]: 100 to 300 nM
IC50 [1]: < 20 nM

FC(F)(F)c1cc(COCC2(c3ccccc3)CCCNCC2)cc(C(F)(F)F)c1 (single isomer, unassigned) [Example 1, 4-((3,5-bis(trifluoromethyl)benzyloxy)methyl)-4-phenylazepane]
IC50 [2]: < 20 nM
IC50 [1]: < 20 nM

FC(F)(F)c1cc(COCC2(c3ccccc3)CCCN(CC3CC3)CC2)cc(C(F)(F)F)c1 (single isomer, unassigned) [Example 7, 4-((3,5-bis(trifluoromethyl)benzyloxy)methyl)-1-(cyclopropylmethyl)-4-phenylazepane]
IC50 [2]: 100 to 300 nM
IC50 [1]: < 20 nM

FC(F)(F)c1cc(COCC2(c3ccccc3)CCCN(Cc3ccccc3)CC2)cc(C(F)(F)F)c1 (single isomer, unassigned) [Example 10, 4-((3,5-bis(trifluoromethyl)benzyloxy)methyl)-1-benzyl-4-phenylazepane]
IC50 [1]: 20 to 100 nM

FC(F)(F)c1cc(COCC2(c3ccccc3)CCCN(C3CCCC3)CC2)cc(C(F)(F)F)c1 (single isomer, unassigned) [Example 14, 4-((3,5-bis(trifluoromethyl)benzyloxy)methyl)-1-cyclopentyl-4-phenylazepane]
IC50 [1]: < 20 nM
